Test results published in patent US9340590B2 (priority 2011, dated 2016).
Where two headings read alike, the source gives them in different places. Positions of bridges follow the written chain, without caps; N, C: chain ends. Non-standard residues stand in square brackets, D forms with d. Residues, ends and D or L forms follow the SMILES beside them. 1Nal = N[C@@H](Cc1cccc2ccccc12)C(=O)O

What was measured:
[1] = molecular target: hNav1.5 (Homo sapiens, UniProt Q14524); assay: cell-based
[2] = molecular target: hNav1.3 (Homo sapiens, UniProt Q9NY46); assay: cell-based; details: IonWorks Quattro, read-out: IWQ Use Nav1.3
[3] = IonWorks Quattro, Use, read-out: IWQ Use Nav1.5

hNav1.3, sequence (Q9NY46 whole entry, looked up): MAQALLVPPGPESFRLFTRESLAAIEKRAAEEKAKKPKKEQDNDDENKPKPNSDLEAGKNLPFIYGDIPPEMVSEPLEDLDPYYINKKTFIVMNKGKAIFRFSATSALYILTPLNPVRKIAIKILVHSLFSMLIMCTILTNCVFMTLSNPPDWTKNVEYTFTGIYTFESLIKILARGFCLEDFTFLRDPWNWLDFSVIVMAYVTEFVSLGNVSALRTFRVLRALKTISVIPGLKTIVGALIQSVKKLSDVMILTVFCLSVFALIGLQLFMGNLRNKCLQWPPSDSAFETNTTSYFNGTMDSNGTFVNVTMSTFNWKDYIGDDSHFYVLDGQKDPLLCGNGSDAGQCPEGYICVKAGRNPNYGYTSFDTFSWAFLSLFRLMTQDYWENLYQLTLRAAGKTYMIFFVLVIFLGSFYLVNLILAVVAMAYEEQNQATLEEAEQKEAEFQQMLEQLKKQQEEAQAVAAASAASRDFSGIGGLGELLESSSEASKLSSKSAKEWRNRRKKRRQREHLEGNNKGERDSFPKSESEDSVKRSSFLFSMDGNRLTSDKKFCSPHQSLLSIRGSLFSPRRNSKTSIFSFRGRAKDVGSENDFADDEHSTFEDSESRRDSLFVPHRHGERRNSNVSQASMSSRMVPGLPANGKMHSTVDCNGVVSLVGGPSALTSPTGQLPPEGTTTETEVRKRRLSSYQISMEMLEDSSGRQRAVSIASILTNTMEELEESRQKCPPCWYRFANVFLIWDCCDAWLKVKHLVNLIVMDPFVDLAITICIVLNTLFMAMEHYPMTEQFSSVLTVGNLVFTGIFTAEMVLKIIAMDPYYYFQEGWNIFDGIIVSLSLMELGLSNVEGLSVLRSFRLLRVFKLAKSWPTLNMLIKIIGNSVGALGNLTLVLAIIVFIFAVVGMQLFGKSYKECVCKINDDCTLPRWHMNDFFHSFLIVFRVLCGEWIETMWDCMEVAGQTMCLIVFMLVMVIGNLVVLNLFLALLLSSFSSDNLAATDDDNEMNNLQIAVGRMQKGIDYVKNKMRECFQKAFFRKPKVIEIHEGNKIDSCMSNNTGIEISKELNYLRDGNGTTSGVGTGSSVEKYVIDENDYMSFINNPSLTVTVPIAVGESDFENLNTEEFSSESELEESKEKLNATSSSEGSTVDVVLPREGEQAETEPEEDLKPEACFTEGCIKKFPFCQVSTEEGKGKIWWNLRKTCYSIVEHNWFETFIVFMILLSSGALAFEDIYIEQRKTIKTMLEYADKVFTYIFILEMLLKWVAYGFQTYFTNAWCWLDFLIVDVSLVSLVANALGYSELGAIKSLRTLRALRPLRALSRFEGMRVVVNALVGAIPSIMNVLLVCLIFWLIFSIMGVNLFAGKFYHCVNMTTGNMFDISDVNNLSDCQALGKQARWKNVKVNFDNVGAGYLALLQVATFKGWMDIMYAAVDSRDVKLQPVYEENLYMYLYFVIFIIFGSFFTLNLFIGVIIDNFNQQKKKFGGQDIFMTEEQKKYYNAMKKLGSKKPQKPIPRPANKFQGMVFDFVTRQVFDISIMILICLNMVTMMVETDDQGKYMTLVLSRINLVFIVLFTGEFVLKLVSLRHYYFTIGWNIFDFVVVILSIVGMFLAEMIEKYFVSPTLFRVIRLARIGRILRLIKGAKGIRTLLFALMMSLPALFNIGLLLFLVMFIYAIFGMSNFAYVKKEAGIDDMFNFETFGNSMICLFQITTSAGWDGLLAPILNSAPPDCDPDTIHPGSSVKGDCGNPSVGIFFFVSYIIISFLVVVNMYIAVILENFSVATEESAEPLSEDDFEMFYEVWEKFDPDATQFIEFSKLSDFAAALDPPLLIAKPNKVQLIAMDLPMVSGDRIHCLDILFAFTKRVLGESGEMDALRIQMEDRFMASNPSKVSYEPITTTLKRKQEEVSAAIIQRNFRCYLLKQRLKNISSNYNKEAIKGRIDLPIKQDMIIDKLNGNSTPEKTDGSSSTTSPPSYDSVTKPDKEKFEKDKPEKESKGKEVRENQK
hNav1.5, sequence (Q14524 whole entry, looked up): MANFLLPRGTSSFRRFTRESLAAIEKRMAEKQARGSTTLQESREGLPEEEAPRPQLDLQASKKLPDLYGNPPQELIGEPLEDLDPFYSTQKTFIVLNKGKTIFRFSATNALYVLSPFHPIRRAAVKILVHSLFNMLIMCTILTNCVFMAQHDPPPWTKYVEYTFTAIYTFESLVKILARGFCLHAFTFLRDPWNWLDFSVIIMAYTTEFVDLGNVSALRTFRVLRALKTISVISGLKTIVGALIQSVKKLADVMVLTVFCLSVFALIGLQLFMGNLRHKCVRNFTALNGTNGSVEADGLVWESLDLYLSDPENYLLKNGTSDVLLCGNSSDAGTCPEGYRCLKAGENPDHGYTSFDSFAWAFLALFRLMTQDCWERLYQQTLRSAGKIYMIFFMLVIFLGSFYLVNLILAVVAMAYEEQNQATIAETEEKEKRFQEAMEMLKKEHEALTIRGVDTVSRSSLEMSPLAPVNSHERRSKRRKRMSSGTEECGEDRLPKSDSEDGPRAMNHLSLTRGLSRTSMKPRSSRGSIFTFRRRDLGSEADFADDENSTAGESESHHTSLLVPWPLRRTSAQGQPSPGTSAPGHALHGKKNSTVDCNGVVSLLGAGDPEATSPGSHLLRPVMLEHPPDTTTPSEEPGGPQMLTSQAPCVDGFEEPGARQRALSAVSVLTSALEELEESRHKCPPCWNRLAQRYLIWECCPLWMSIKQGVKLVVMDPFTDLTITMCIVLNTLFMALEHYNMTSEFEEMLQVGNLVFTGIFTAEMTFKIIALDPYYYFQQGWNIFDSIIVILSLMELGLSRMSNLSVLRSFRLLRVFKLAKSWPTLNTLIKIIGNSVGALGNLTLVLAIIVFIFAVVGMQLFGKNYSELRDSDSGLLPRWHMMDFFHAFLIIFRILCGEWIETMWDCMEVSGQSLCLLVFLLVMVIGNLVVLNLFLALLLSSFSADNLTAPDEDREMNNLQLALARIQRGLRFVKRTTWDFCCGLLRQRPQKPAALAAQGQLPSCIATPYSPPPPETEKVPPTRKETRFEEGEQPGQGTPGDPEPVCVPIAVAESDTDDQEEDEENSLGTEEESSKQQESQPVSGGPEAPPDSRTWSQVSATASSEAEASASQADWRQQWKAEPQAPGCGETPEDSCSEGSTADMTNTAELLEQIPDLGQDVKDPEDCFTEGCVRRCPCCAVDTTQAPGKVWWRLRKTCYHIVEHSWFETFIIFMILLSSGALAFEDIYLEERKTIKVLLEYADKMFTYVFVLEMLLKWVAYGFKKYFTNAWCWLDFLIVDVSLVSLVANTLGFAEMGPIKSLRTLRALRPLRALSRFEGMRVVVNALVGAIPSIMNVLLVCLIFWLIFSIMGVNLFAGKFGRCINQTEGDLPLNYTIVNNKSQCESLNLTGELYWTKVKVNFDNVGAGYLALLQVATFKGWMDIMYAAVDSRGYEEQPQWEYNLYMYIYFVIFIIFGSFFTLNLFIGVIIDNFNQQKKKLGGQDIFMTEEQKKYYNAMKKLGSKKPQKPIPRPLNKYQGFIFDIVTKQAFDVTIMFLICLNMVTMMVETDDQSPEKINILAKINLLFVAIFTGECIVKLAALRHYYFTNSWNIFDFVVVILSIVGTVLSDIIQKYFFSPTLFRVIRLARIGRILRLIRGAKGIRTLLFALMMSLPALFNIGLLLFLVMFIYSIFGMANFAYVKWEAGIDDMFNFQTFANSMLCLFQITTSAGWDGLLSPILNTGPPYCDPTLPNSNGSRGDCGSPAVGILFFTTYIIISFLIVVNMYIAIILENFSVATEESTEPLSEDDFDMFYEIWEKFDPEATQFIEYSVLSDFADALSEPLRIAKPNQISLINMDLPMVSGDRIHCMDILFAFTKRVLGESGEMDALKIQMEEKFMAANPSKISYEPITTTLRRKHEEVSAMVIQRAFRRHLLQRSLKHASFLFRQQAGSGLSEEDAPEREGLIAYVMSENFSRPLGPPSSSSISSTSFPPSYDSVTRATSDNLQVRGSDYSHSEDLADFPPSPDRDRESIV

Structure (SMILES) | IC50 ([1]; IWQ Use Nav1.5 (μM)) [µM] | IC50 ([2]; Use) [µM] | IC50 ([2]; Table 25, use, […]) [µM] | IC50 [1, 3] [µM]
CC[C@H](C)[C@@H]1NC(=O)[C@@H]2CSSC[C@@H]3NC(=O)[C@H](CCCNC(=N)N)NC(=O)[C@H](CC(C)C)NC(=O)[C@H](CC(N)=O)NC(=O)[C@@H]4CCCN4C(=O)[C@H](CCCNC(=N)N)NC(=O)[C@H](CSSC[C@H](NC(=O)[C@@H](N)CC(=O)O)C(=O)N[C@@H](CC(C)C)C(=O)NCC(=O)N[C@@H](Cc4ccccc4)C(=O)N[C@@H](CCSC)C(=O)N[C@@H](CCCNC(=N)N)C(=O)N[C@@H](CCCCN)C(=O)N2)NC(=O)[C@H](CSSC[C@@H](C(=O)N[C@@H](CCCCN)C(=O)N[C@@H](Cc2ccc(O)cc2)C(=O)N[C@H](C(=O)N[C@@H](Cc2ccccc2)C(N)=O)C(C)C)NC(=O)[C@H](Cc2c[nH]c4ccccc24)NC(=O)[C@H](CCCCN)NC(=O)[C@H](Cc2cnc[nH]2)NC(=O)[C@H]([C@@H](C)O)NC(=O)[C@H](CCCNC(=N)N)NC(=O)[C@H](CO)NC3=O)NC(=O)[C@H](CCCCN)NC(=O)[C@H](CC(=O)O)NC(=O)[C@H](CC(N)=O)NC(=O)[C@H](CC(=O)O)NC(=O)[C@@H]2CCCN2C1=O [compound 158] (H-DCLGFMRKCIPDNDKCCRPNLRCSRTHKWCKYVF-NH2; disulfide 2-17, 9-23, 16-30) | 8.2 | 0.03 | – | –
CC[C@H](C)[C@@H]1NC(=O)[C@@H]2CSSC[C@@H]3NC(=O)[C@H](C(C)C)NC(=O)[C@H](CC(C)C)NC(=O)[C@H](CC(N)=O)NC(=O)[C@@H]4CCCN4C(=O)[C@H](CCCNC(=N)N)NC(=O)[C@H](CSSC[C@H](NC(=O)[C@@H](N)CC(=O)O)C(=O)N[C@@H](CC(C)C)C(=O)NCC(=O)N[C@@H](Cc4ccccc4)C(=O)N[C@@H](CCSC)C(=O)N[C@@H](CCCNC(=N)N)C(=O)N[C@@H](CCCCN)C(=O)N2)NC(=O)[C@H](CSSC[C@@H](C(=O)N[C@@H](CCCCN)C(=O)N[C@@H](CCCNC(=N)N)C(=O)N[C@H](C(=O)N[C@@H](Cc2ccccc2)C(N)=O)C(C)C)NC(=O)[C@H](Cc2c[nH]c4ccccc24)NC(=O)[C@H](CCCCN)NC(=O)[C@H](Cc2cnc[nH]2)NC(=O)[C@H]([C@@H](C)O)NC(=O)[C@H](CCCNC(=N)N)NC(=O)[C@H](CO)NC3=O)NC(=O)[C@H](CCCCN)NC(=O)[C@H](CC(=O)O)NC(=O)[C@H](CC(N)=O)NC(=O)[C@H](CC(=O)O)NC(=O)[C@@H]2CCCN2C1=O [compound 159] (H-DCLGFMRKCIPDNDKCCRPNLVCSRTHKWCKRVF-NH2; disulfide 2-17, 9-23, 16-30) | 8.65 | – | 0.87 | –
CC[C@H](C)[C@@H]1NC(=O)[C@@H]2CSSC[C@@H]3NC(=O)[C@H](C(C)C)NC(=O)[C@H](CC(C)C)NC(=O)[C@H](CC(N)=O)NC(=O)[C@@H]4CCCN4C(=O)[C@H](CCCNC(=N)N)NC(=O)[C@H](CSSC[C@H](NC(=O)[C@@H](N)CC(=O)O)C(=O)N[C@@H](CC(C)C)C(=O)NCC(=O)N[C@@H](Cc4ccccc4)C(=O)N[C@@H](CCSC)C(=O)N[C@@H](CCCNC(=N)N)C(=O)N[C@@H](CCCCN)C(=O)N2)NC(=O)[C@H](CSSC[C@@H](C(=O)N[C@@H](CCCCN)C(=O)N[C@@H](Cc2cccc4ccccc24)C(=O)N[C@H](C(=O)N[C@@H](Cc2ccccc2)C(N)=O)C(C)C)NC(=O)[C@H](Cc2c[nH]c4ccccc24)NC(=O)[C@H](CCCCN)NC(=O)[C@H](Cc2cnc[nH]2)NC(=O)[C@H]([C@@H](C)O)NC(=O)[C@H](CCCNC(=N)N)NC(=O)[C@H](CO)NC3=O)NC(=O)[C@H](CCCCN)NC(=O)[C@H](CC(=O)O)NC(=O)[C@H](CC(N)=O)NC(=O)[C@H](CC(=O)O)NC(=O)[C@@H]2CCCN2C1=O [compound 167] (H-DCLGFMRKCIPDNDKCCRPNLVCSRTHKWCK[1Nal]VF-NH2; disulfide 2-17, 9-23, 16-30) | 3.96 | – | 0.001 | –
CSCC[C@@H]1NC(=O)[C@H](Cc2ccccc2)NC(=O)CNC(=O)[C@H](CC(C)C)NC(=O)[C@@H](NC(=O)[C@@H](N)CC(=O)O)CSSC[C@@H]2NC(=O)[C@@H]3CSSC[C@@H](C(=O)N[C@@H](CCCCN)C(=O)N[C@@H](Cc4ccc(O)cc4)C(=O)N[C@H](C(=O)N[C@@H](Cc4ccccc4)C(N)=O)C(C)C)NC(=O)[C@H](Cc4c[nH]c5ccccc45)NC(=O)[C@H](CCCCN)NC(=O)[C@H](Cc4cnc[nH]4)NC(=O)[C@H]([C@@H](C)O)NC(=O)[C@H](CCCNC(=N)N)NC(=O)[C@H](CO)NC(=O)[C@H](CSSC[C@H](NC(=O)[C@H](CCCCN)NC(=O)[C@H](CCCNC(=N)N)NC1=O)C(=O)N[C@@H](Cc1ccc(O)cc1)C(=O)N1CCC[C@H]1C(=O)N[C@@H](CC(=O)O)C(=O)N[C@@H](CC(N)=O)C(=O)N[C@@H](CC(=O)O)C(=O)N[C@@H](CCCCN)C(=O)N3)NC(=O)[C@H](C(C)C)NC(=O)[C@H](CC(C)C)NC(=O)[C@H](CC(N)=O)NC(=O)[C@@H]1CCCN1C(=O)[C@H](CCCNC(=N)N)NC2=O [compound 299] (H-DCLGFMRKCYPDNDKCCRPNLVCSRTHKWCKYVF-NH2; disulfide 2-17, 9-23, 16-30) | – | 0.07 | – | 5.41
CSCC[C@@H]1NC(=O)[C@H](Cc2ccccc2)NC(=O)CNC(=O)[C@H](CC(C)C)NC(=O)[C@@H](NC(=O)[C@@H](N)CC(=O)O)CSSC[C@@H]2NC(=O)[C@@H]3CSSC[C@@H](C(=O)N[C@@H](CCCCN)C(=O)N[C@@H](Cc4ccc(O)cc4)C(=O)N[C@H](C(=O)N[C@@H](Cc4ccccc4)C(N)=O)C(C)C)NC(=O)[C@H](Cc4c[nH]c5ccccc45)NC(=O)[C@H](CCCCN)NC(=O)[C@H](Cc4cnc[nH]4)NC(=O)[C@H]([C@@H](C)O)NC(=O)[C@H](CCCNC(=N)N)NC(=O)[C@H](CO)NC(=O)[C@H](CSSC[C@H](NC(=O)[C@H](CCCCN)NC(=O)[C@H](CCCNC(=N)N)NC1=O)C(=O)N[C@@H](C(C)C)C(=O)N1CCC[C@H]1C(=O)N[C@@H](CC(=O)O)C(=O)N[C@@H](CC(N)=O)C(=O)N[C@@H](CC(=O)O)C(=O)N[C@@H](CCCCN)C(=O)N3)NC(=O)[C@H](C(C)C)NC(=O)[C@H](CC(C)C)NC(=O)[C@H](CC(N)=O)NC(=O)[C@@H]1CCCN1C(=O)[C@H](CCCNC(=N)N)NC2=O [compound 301] (H-DCLGFMRKCVPDNDKCCRPNLVCSRTHKWCKYVF-NH2; disulfide 2-17, 9-23, 16-30) | – | 0.09 | – | 7.88
CSCC[C@@H]1NC(=O)[C@H](Cc2ccccc2)NC(=O)CNC(=O)[C@H](CC(C)C)NC(=O)[C@@H](NC(=O)[C@@H](N)CC(=O)O)CSSC[C@@H]2NC(=O)[C@@H]3CSSC[C@@H](C(=O)N[C@@H](CCCCN)C(=O)N[C@@H](Cc4ccc(O)cc4)C(=O)N[C@H](C(=O)N[C@@H](Cc4ccccc4)C(N)=O)C(C)C)NC(=O)[C@H](Cc4c[nH]c5ccccc45)NC(=O)[C@H](CCCCN)NC(=O)[C@H](Cc4cnc[nH]4)NC(=O)[C@H]([C@@H](C)O)NC(=O)[C@H](CCCNC(=N)N)NC(=O)[C@H](CO)NC(=O)[C@H](CSSC[C@H](NC(=O)[C@H](CCCCN)NC(=O)[C@H](CCCNC(=N)N)NC1=O)C(=O)N[C@@H](Cc1ccccc1)C(=O)N1CCC[C@H]1C(=O)N[C@@H](CC(=O)O)C(=O)N[C@@H](CC(N)=O)C(=O)N[C@@H](CC(=O)O)C(=O)N[C@@H](CCCCN)C(=O)N3)NC(=O)[C@H](C(C)C)NC(=O)[C@H](CC(C)C)NC(=O)[C@H](CC(N)=O)NC(=O)[C@@H]1CCCN1C(=O)[C@H](CCCNC(=N)N)NC2=O [compound 302] (H-DCLGFMRKCFPDNDKCCRPNLVCSRTHKWCKYVF-NH2; disulfide 2-17, 9-23, 16-30) | – | 0.08 | – | 5.33
CSCC[C@@H]1NC(=O)[C@H](Cc2ccccc2)NC(=O)CNC(=O)[C@H](CC(C)C)NC(=O)[C@@H](NC(=O)[C@@H](N)CC(=O)O)CSSC[C@@H]2NC(=O)[C@@H]3CSSC[C@@H](C(=O)N[C@@H](CCCCN)C(=O)N[C@@H](Cc4ccc(O)cc4)C(=O)N[C@H](C(=O)N[C@@H](Cc4ccccc4)C(N)=O)C(C)C)NC(=O)[C@H](Cc4c[nH]c5ccccc45)NC(=O)[C@H](CCCCN)NC(=O)[C@H](Cc4cnc[nH]4)NC(=O)[C@H]([C@@H](C)O)NC(=O)[C@H](CCCNC(=N)N)NC(=O)[C@H](CO)NC(=O)[C@H](CSSC[C@H](NC(=O)[C@H](CCCCN)NC(=O)[C@H](CCCNC(=N)N)NC1=O)C(=O)N[C@@H](Cc1cnc[nH]1)C(=O)N1CCC[C@H]1C(=O)N[C@@H](CC(=O)O)C(=O)N[C@@H](CC(N)=O)C(=O)N[C@@H](CC(=O)O)C(=O)N[C@@H](CCCCN)C(=O)N3)NC(=O)[C@H](C(C)C)NC(=O)[C@H](CC(C)C)NC(=O)[C@H](CC(N)=O)NC(=O)[C@@H]1CCCN1C(=O)[C@H](CCCNC(=N)N)NC2=O [compound 304] (H-DCLGFMRKCHPDNDKCCRPNLVCSRTHKWCKYVF-NH2; disulfide 2-17, 9-23, 16-30) | – | 0.03 | – | 6.36
CSCC[C@@H]1NC(=O)[C@H](Cc2ccccc2)NC(=O)CNC(=O)[C@H](CC(C)C)NC(=O)[C@@H](NC(=O)[C@@H](N)CC(=O)O)CSSC[C@@H]2NC(=O)[C@@H]3CSSC[C@@H](C(=O)N[C@@H](CCCCN)C(=O)N[C@@H](Cc4ccc(O)cc4)C(=O)N[C@H](C(=O)N[C@@H](Cc4ccccc4)C(N)=O)C(C)C)NC(=O)[C@H](Cc4c[nH]c5ccccc45)NC(=O)[C@H](CCCCN)NC(=O)[C@H](Cc4cnc[nH]4)NC(=O)[C@H]([C@@H](C)O)NC(=O)[C@H](CCCNC(=N)N)NC(=O)[C@H](CO)NC(=O)[C@H](CSSC[C@H](NC(=O)[C@H](CCCCN)NC(=O)[C@H](CCCNC(=N)N)NC1=O)C(=O)N[C@@H](CO)C(=O)N1CCC[C@H]1C(=O)N[C@@H](CC(=O)O)C(=O)N[C@@H](CC(N)=O)C(=O)N[C@@H](CC(=O)O)C(=O)N[C@@H](CCCCN)C(=O)N3)NC(=O)[C@H](C(C)C)NC(=O)[C@H](CC(C)C)NC(=O)[C@H](CC(N)=O)NC(=O)[C@@H]1CCCN1C(=O)[C@H](CCCNC(=N)N)NC2=O [compound 305] (H-DCLGFMRKCSPDNDKCCRPNLVCSRTHKWCKYVF-NH2; disulfide 2-17, 9-23, 16-30) | – | 0.09 | – | 4.64
